Results reported in the supplement of paper PMC10307832.

Columns and labels:
Assay in all cases: relative viability (nuclei count vs DMSO), 5 days (fraction); higher = more cells survive
PAC-1 + Palbociclib = compound: C=CCc1cccc(/C=N/NC(=O)CN2CCN(Cc3ccccc3)CC2)c1O [PAC-1] + CC(=O)c1c(C)c2cnc(Nc3ccc(N4CCNCC4)cn3)nc2n(C2CCCC2)c1=O [Palbociclib] (partner 0.5 µM)
Outline: (§1)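 Lung cancer cell lines were seeded in 1536-well plates and dosed by pin tool the next day, with either a single drug or a fixed anchor-drug dose combined with five library-drug doses (not always all listed) spaced in √10 steps. Five days later, one step fixed the cells and stained their nuclei (final 0.05% Triton X-100, 1% formaldehyde, 1 ug/ml Hoechst), and nuclei were counted on 4× images. Relative viability is the nuclei count in treated wells divided by the count in vehicle wells, and each value is the median of duplicate plates.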

PAC-1 + Luminespib = compound: C=CCc1cccc(/C=N/NC(=O)CN2CCN(Cc3ccccc3)CC2)c1O [PAC-1] + CCNC(=O)c1noc(-c2cc(C(C)C)c(O)cc2O)c1-c1ccc(CN2CCOCC2)cc1 [Luminespib] (partner 0.01 µM)
Outline: as §1

BMX-IN-1 + Navitoclax = compound: C=CC(=O)Nc1cc(-n2c(=O)ccc3cnc4ccc(-c5ccc(NS(C)(=O)=O)cc5)cc4c32)ccc1C [BMX-IN-1] + CC1(C)CCC(c2ccc(Cl)cc2)=C(CN2CCN(c3ccc(C(=O)NS(=O)(=O)c4ccc(N[C@H](CCN5CCOCC5)CSc5ccccc5)c(S(=O)(=O)C(F)(F)F)c4)cc3)CC2)C1 [Navitoclax] (partner 0.5 µM)
Outline: as §1

PAC-1 + Lapatinib = compound: C=CCc1cccc(/C=N/NC(=O)CN2CCN(Cc3ccccc3)CC2)c1O [PAC-1] + CS(=O)(=O)CCNCc1ccc(-c2ccc3ncnc(Nc4ccc(OCc5cccc(F)c5)c(Cl)c4)c3c2)o1 [Lapatinib] (partner 2 µM)
Outline: as §1

BMX-IN-1 + AZD7762 = compound: C=CC(=O)Nc1cc(-n2c(=O)ccc3cnc4ccc(-c5ccc(NS(C)(=O)=O)cc5)cc4c32)ccc1C [BMX-IN-1] + NC(=O)Nc1cc(-c2cccc(F)c2)sc1C(=O)N[C@H]1CCCNC1 [AZD7762] (partner 0.2 µM)
Outline: as §1

Cell Line	relative viability (PAC-1 + Palbociclib; first compound 0.02 µM)	relative viability (PAC-1 + Palbociclib; first compound 0.06325 µM)	relative viability (PAC-1 + Palbociclib; first compound 0.2 µM)	relative viability (PAC-1 + Palbociclib; first compound 2 µM)	relative viability (PAC-1 + Luminespib; first compound 0.02 µM)	relative viability (PAC-1 + Luminespib; first compound 0.06325 µM)	relative viability (PAC-1 + Luminespib; first compound 0.2 µM)	relative viability (PAC-1 + Luminespib; first compound 2 µM)	relative viability (BMX-IN-1 + Navitoclax; first compound 0.02 µM)	relative viability (BMX-IN-1 + Navitoclax; first compound 0.2 µM)	relative viability (BMX-IN-1 + Navitoclax; first compound 0.6325 µM)	relative viability (BMX-IN-1 + Navitoclax; first compound 2 µM)	relative viability (PAC-1 + Lapatinib; first compound 0.02 µM)	relative viability (PAC-1 + Lapatinib; first compound 0.06325 µM)	relative viability (PAC-1 + Lapatinib; first compound 0.2 µM)	relative viability (PAC-1 + Lapatinib; first compound 2 µM)	relative viability (BMX-IN-1 + AZD7762; first compound 0.02 µM)	relative viability (BMX-IN-1 + AZD7762; first compound 0.2 µM)	relative viability (BMX-IN-1 + AZD7762; first compound 0.6325 µM)	relative viability (BMX-IN-1 + AZD7762; first compound 2 µM)
HCC-44	1.04	0.984	0.965	0.993	1.04	1.14	1.01	0.964	1.25	1.16	1.13	0.989	1.06	1.04	0.962	1.03	0.989	0.941	1.01	1.11
HCC-827	0.482	0.461	0.442	0.473	0.634	0.465	0.649	0.609	1.02	0.992	1	1.03	0.193	0.194	0.186	0.198	0.217	0.207	0.251	0.194
HOP-62	0.463	0.437	0.51	0.46	0.954	0.835	0.852	0.942	1.42	1.17	1.21	1.12	0.876	0.987	1.03	1.22	0.606	0.627	0.724	0.65
LC-2-ad	0.513	0.439	0.492	0.496	1.06	1.02	0.971	0.963	0.55	0.504	0.776	0.513	0.983	0.957	0.984	0.865	0.982	1.09	0.924	0.867
LCLC-97TM1	0.211	0.274	–	0.225	0.74	0.916	0.621	0.868	0.349	0.429	0.322	0.46	–	0.796	0.796	0.954	0.235	0.239	0.327	0.202
LK-2	0.536	0.809	0.616	0.63	0.176	0.169	0.225	0.254	1.09	1.04	1.02	0.923	0.77	1.04	0.884	0.932	0.397	0.297	0.323	0.41
LOU-NH91	0.573	0.539	0.526	0.515	0.312	0.271	0.352	0.322	–	0.695	0.773	0.683	0.723	0.82	0.749	0.782	–	0.806	0.865	0.753
LU99A	0.425	0.422	0.461	0.408	0.304	0.229	0.266	0.217	0.897	0.885	0.857	0.833	1.11	1.05	0.918	0.977	0.393	0.416	0.415	0.288
